# Measurements reported in patent US10633419B2, “Immunomodulators” (BRISTOL-MYERS SQUIBB COMPANY, priority 2014, dated 2020).
# Starred links: 1 amine or outer side, 2 acyl side, 3 side chain; linkers in the order of their positions; H or OH if unused. Positions of bridges follow the written chain, without caps; N, C: chain ends. Non-standard residues stand in square brackets, D forms with d. Residues, ends and D or L forms follow the SMILES beside them. Groups on a side chain read outwards from the residue. *: point of attachment. δOrn(Nα-Octadecanedioyl) = O=C(O)CCCCCCCCCCCCCCCCC(=O)N[C@@H](CCCN*)C(=O)O; X6 = O=C(O)CCCCCCCCCCCCCCCCC(=O)N[C@@H](CCC(=O)NCCCOCCOCCOCCCN*)C(=O)O; Trp(1-CH2COOH) = N[C@@H](Cc1cn(CC(=O)O)c2ccccc12)C(=O)O; C18 diacid = O=C(O)CCCCCCCCCCCCCCCCC(=O)*; Phe(4-F) = N[C@@H](Cc1ccc(F)cc1)C(=O)O; γGlu = O=C(O)[C@H](CCC(=O)[*:2])N[*:1]; NH(CH2)12COOH = O=C(O)CCCCCCCCCCCCN*; Palmitoyl = CCCCCCCCCCCCCCCC(=O)*; Hyp = O=C(O)[C@@H]1C[C@@H](O)CN1; NMeNle = CCCC[C@H](NC)C(=O)O; Dap(Me) = CNC[C@H](N)C(=O)O; AEEEA = NCCOCCOCCOCC(=O)O; Pip = O=C(O)[C@@H]1CCCCN1; NMeA = CN[C@@H](C)C(=O)O; Pra = C#CC[C@H](N)C(=O)O; Aun = NCCCCCCCCCCC(=O)O; Dab = NCC[C@H](N)C(=O)O; Dap = NC[C@H](N)C(=O)O
# Target: T1, PD-L1 (Homo sapiens, UniProt Q9NZQ7)
# T1 construct: hPDL1(19-239)-TVMV-His; made in house; host or cells: HEK293T
# T1 sequence (Q9NZQ7 with tags, fused parts or gaps): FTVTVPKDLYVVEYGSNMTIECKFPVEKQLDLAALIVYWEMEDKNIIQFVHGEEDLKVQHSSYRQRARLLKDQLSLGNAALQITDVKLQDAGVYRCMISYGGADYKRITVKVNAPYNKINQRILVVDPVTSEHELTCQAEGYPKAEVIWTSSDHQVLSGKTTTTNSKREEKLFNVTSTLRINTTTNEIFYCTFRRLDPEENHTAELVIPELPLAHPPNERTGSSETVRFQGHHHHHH
# Experiment: PD-1/PD-L1 Homogenous Time-Resolved Fluorescence (HTRF) binding assay (PD-1-Ig/PD-L1-His)
# Settings: inhibition of PD-1-Ig binding to PD-L1-TVMV-His; value given as number; read-out: HTRF IC50
# How it was run: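 Inhibitors pre-incubated 15 min with PD-L1-His (10 nM final), then PD-1-Ig (20 nM final) added for 15 min in dPBS/0.1% BSA/0.05% Tween-20. Eu-cryptate anti-Ig (1 nM) and APC anti-His (20 nM) added, 30 min equilibration, 665/620 nm HTRF ratio read.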
row,Structure (SMILES),IC50
1,CCCC[C@H]1C(=O)N(C)[C@@H](CCCC)C(=O)N[C@@H](CC(C)C)C(=O)N[C@H](C(=O)NCC(=O)N[C@@H](Cc2cn(CC[C@H](NC(=O)CCCCCCCCCCCCCCCCC(=O)O)C(=O)O)nn2)C(N)=O)CSCC(=O)N[C@@H](Cc2ccc(O)cc2)C(=O)N(C)[C@@H](C)C(=O)N[C@@H](CC(N)=O)C(=O)N2CCC[C@H]2C(=O)N[C@@H](CN)C(=O)N[C@@H](CC(C)C)C(=O)N2C[C@H](O)C[C@H]2C(=O)N[C@@H](Cc2c[nH]c3ccccc23)C(=O)N[C@@H](CCN)C(=O)N[C@@H](Cc2cn(CC(=O)O)c3ccccc23)C(=O)N1C [Example 14096],790 nM
2,CCCC[C@H]1C(=O)N(C)[C@@H](CCCC)C(=O)N[C@@H](CC(C)C)C(=O)N[C@H](C(=O)NCC(=O)N[C@@H](Cc2cn(CC[C@H](NC(=O)CCCCCCCCCCCCCCCCC(=O)O)C(=O)O)nn2)C(=O)O)CSCC(=O)N[C@@H](Cc2ccc(O)cc2)C(=O)N(C)[C@@H](C)C(=O)N[C@@H](CC(N)=O)C(=O)N2CCC[C@H]2C(=O)N[C@@H](CN)C(=O)N[C@@H](CC(C)C)C(=O)N2C[C@H](O)C[C@H]2C(=O)N[C@@H](Cc2c[nH]c3ccccc23)C(=O)N[C@@H](CCN)C(=O)N[C@@H](Cc2cn(CC(=O)O)c3ccccc23)C(=O)N1C [Example 14095],14 nM
3,CCCC[C@H]1C(=O)N(C)[C@@H](CCCC)C(=O)N[C@@H](CC(C)C)C(=O)N[C@H](C(=O)NCC(=O)N[C@@H](CCNC(=O)CC[C@H](NC(=O)CCCCCCCCCCCCCCCCC(=O)O)C(=O)O)C(=O)O)CSCC(=O)N[C@@H](Cc2ccc(F)cc2)C(=O)N2CCCC[C@H]2C(=O)N[C@@H](CC(=O)O)C(=O)N2CCC[C@H]2C(=O)N[C@@H](CN)C(=O)N[C@@H](CC(C)C)C(=O)N2C[C@H](O)C[C@H]2C(=O)N[C@@H](Cc2c[nH]c3ccccc23)C(=O)N[C@@H](CCN)C(=O)N[C@@H](Cc2cn(CC(=O)O)c3ccccc23)C(=O)N1C [Example 13150] ({CH2CO}-[Phe(4-F)][Pip]DP[Dap]L[Hyp]W[Dab][Trp(1-CH2COOH)][NMeNle][NMeNle]LCG[Dab]([γGlu-C18 diacid])-OH; thioether N-14),20.9 nM
4,CCCC[C@H]1C(=O)N(C)[C@@H](CCCC)C(=O)N[C@@H](CC(C)C)C(=O)N[C@H](C(=O)NCC(=O)N[C@@H](CC(=O)NCCCOCCOCCOCCCNC(=O)CC[C@H](NC(=O)CCCCCCCCCCCCCCCCC(=O)O)C(=O)O)C(=O)O)CSCC(=O)N[C@@H](Cc2ccc(O)cc2)C(=O)N(C)[C@@H](C)C(=O)N[C@@H](CC(N)=O)C(=O)N2CCC[C@H]2C(=O)N[C@@H](Cc2c[nH]cn2)C(=O)N[C@@H](CCC(=O)O)C(=O)N2C[C@H](O)C[C@H]2C(=O)N[C@@H](Cc2c[nH]c3ccccc23)C(=O)N[C@@H](CCN)C(=O)N[C@@H](Cc2cn(CC(=O)O)c3ccccc23)C(=O)N1C [Example 11179] ({CH2CO}-Y[NMeA]NPHE[Hyp]W[Dab][Trp(1-CH2COOH)][NMeNle][NMeNle]LCGD(X6)-OH; thioether N-14),3 nM

# Same assay, conditions: inhibition of PD-1-Ig binding to PD-L1-TVMV-His; value given as range class; read-out: HTRF IC50
row,IC50,Structure (SMILES)
1,100 to 1600 nM,CCCC[C@H]1C(=O)N(C)[C@@H](CCCC)C(=O)N[C@@H](CC(C)C)C(=O)N[C@H](C(=O)NCC(=O)N[C@@H](CC(=O)NCCC[C@H](NC(=O)CCCCCCCCCCCCCCCCC(=O)O)C(=O)O)C(=O)O)CSCC(=O)N[C@@H](Cc2ccc(O)cc2)C(=O)N2CCCC[C@H]2C(=O)N[C@@H](CC(N)=O)C(=O)N2CCC[C@H]2C(=O)N[C@@H](CN)C(=O)N[C@@H](CC(C)C)C(=O)N2C[C@H](O)C[C@H]2C(=O)N[C@@H](Cc2c[nH]c3ccccc23)C(=O)N[C@@H](CCN)C(=O)N[C@@H](Cc2cn(CC(=O)O)c3ccccc23)C(=O)N1C [Example 13141] ({CH2CO}-Y[Pip]NP[Dap]L[Hyp]W[Dab][Trp(1-CH2COOH)][NMeNle][NMeNle]LCGD(δOrn(Nα-Octadecanedioyl))-OH; thioether N-14)
2,10 to 99 nM,CCCC[C@H]1C(=O)N(C)[C@@H](CCCC)C(=O)N[C@@H](CCC(=O)O)C(=O)N[C@H](C(=O)NCC(=O)N[C@@H](Cc2cn(CC[C@H](NC(=O)CCCCCCCCCCCCCCCCC(=O)O)C(=O)O)nn2)C(=O)O)CSCC(=O)N[C@@H](Cc2ccc(OC)cc2)C(=O)N2CCCC[C@H]2C(=O)N[C@@H](CC(=O)O)C(=O)N2CCC[C@H]2C(=O)N[C@@H](CN)C(=O)N[C@@H](CCC(N)=O)C(=O)N2C[C@H](O)C[C@H]2C(=O)N[C@@H](Cc2c[nH]c3ccccc23)C(=O)N[C@@H](CCN)C(=O)N[C@@H](Cc2cn(CC(=O)O)c3ccccc23)C(=O)N1C [Example 14121]

# Second part, the compound before the results:
row,Structure (SMILES),IC50
1,CCCC[C@H]1C(=O)N(C)[C@@H](CCCC)C(=O)N[C@@H](CC(C)C)C(=O)N[C@H](C(=O)NCCOCCOCCOCC(=O)NCCCCCCCCCCC(=O)O)CSCC(=O)N[C@@H](Cc2ccc(O)cc2)C(=O)N(C)[C@@H](C)C(=O)N[C@@H](CC(N)=O)C(=O)N2CCC[C@H]2C(=O)N[C@@H](CO)C(=O)N[C@@H](CCC(N)=O)C(=O)N2C[C@H](O)C[C@H]2C(=O)N[C@@H](Cc2c[nH]c3ccccc23)C(=O)N[C@@H](CO)C(=O)N[C@@H](Cc2cn(CC(=O)O)c3ccccc23)C(=O)N1C [Example 11085] ({CH2CO}-Y[NMeA]NPSQ[Hyp]WS[Trp(1-CH2COOH)][NMeNle][NMeNle]LC[AEEEA][Aun]-OH; thioether N-14),10 to 99 nM
2,CCCC[C@H]1C(=O)N2C[C@H](O)C[C@@H]2C(=O)N[C@@H](CC(=O)O)C(=O)N[C@@H](C(C)C)C(=O)N(C)[C@@H](Cc2ccccc2)C(=O)N[C@@H](CC(=O)O)C(=O)N2CCC[C@@H]2C(=O)N[C@@H](Cc2c[nH]c3ccccc23)C(=O)N[C@@H](Cc2ccc(O)cc2)C(=O)N[C@@H](CC(C)C)C(=O)N[C@H](C(=O)NCC(=O)N[C@@H](Cc2cn(CC[C@H](NC(=O)CCCCCCCCCCCCCCC(=O)O)C(=O)O)nn2)C(N)=O)CSCC(=O)N[C@@H](Cc2cc(F)c(F)c(F)c2)C(=O)N(C)[C@@H](Cc2ccccc2)C(=O)N1C [Example 14074],10 to 99 nM
3,CCCCCCCCCCCCCCCC(=O)NCCCC[C@H](NC(=O)[C@H](CO)NC(=O)CNC(=O)CNC(=O)CNC(=O)[C@@H]1CSCC(=O)N[C@@H](Cc2ccc(O)cc2)C(=O)N(C)[C@@H](C)C(=O)N[C@@H](CC(N)=O)C(=O)N2CCC[C@H]2C(=O)N[C@@H](CCN)C(=O)N[C@@H](CC(C)C)C(=O)N2C[C@H](O)C[C@H]2C(=O)N[C@@H](Cc2c[nH]c3ccccc23)C(=O)N[C@@H](CO)C(=O)N[C@@H](Cc2c[nH]c3ccccc23)C(=O)N(C)[C@@H](CCCC)C(=O)N(C)[C@@H](CCCC)C(=O)N[C@@H](CCCNC(=N)N)C(=O)N1)C(N)=O [Example 11024] ({CH2CO}-Y[NMeA]NP[Dab]L[Hyp]WSW[NMeNle][NMeNle]RCGGGSK(Palmitoyl)-NH2; thioether N-14),100 to 1600 nM
4,CCCC[C@H]1C(=O)N(C)[C@@H](CCCC)C(=O)N[C@@H](CC(C)C)C(=O)N[C@H](C(=O)NCC(=O)N[C@@H](CC(=O)O)C(=O)NCC(=O)NCCCCCCCCCCCCC(=O)O)CSCC(=O)N[C@@H](Cc2ccc(O)cc2)C(=O)N(C)[C@@H](C)C(=O)N[C@@H](CC(N)=O)C(=O)N2CCC[C@H]2C(=O)N[C@@H](CN)C(=O)N[C@@H](CC(C)C)C(=O)N2C[C@H](O)C[C@H]2C(=O)N[C@@H](Cc2c[nH]c3ccccc23)C(=O)N[C@@H](CCN)C(=O)N[C@@H](Cc2cn(CC(=O)O)c3ccccc23)C(=O)N1C [Example 11223] ({CH2CO}-Y[NMeA]NP[Dap]L[Hyp]W[Dab][Trp(1-CH2COOH)][NMeNle][NMeNle]LCGDG-{NH(CH2)12COOH}; thioether N-14),10 to 99 nM
5,C#CC[C@H](NC(=O)CNC(=O)[C@@H]1CSCC(=O)N[C@@H](Cc2ccc(O)cc2)C(=O)N(C)[C@@H](C)C(=O)N[C@@H](CC(=O)O)C(=O)N2CCC[C@H]2C(=O)N[C@@H](Cc2c[nH]cn2)C(=O)N[C@@H](CCCCN)C(=O)N2C[C@H](O)C[C@H]2C(=O)N[C@@H](Cc2c[nH]c3ccccc23)C(=O)N[C@@H](CCCCN)C(=O)N[C@@H](Cc2c[nH]c3ccccc23)C(=O)N(C)[C@@H](CCCC)C(=O)N(C)[C@@H](CCCC)C(=O)N[C@@H](CCC(=O)O)C(=O)N1)C(=O)NCC(N)=O [INT 1400A] ({CH2CO}-Y[NMeA]DPHK[Hyp]WKW[NMeNle][NMeNle]ECG[Pra]G-NH2; thioether N-14),0.3 to 9.9 nM
6,CCCC[C@H]1C(=O)N(C)[C@@H](CCCC)C(=O)N[C@@H](CC(C)C)C(=O)N[C@H](C(=O)NCC(=O)N[C@@H](CC(=O)O)C(=O)NCCCCCCCCCCCCC(=O)O)CSCC(=O)N[C@@H](Cc2ccc(O)cc2)C(=O)N(C)[C@@H](C)C(=O)N[C@@H](CC(=O)O)C(=O)N2CCC[C@H]2C(=O)N[C@@H](Cc2cnc[nH]2)C(=O)N[C@@H](CCCCN)C(=O)N2C[C@H](O)C[C@H]2C(=O)N[C@@H](Cc2c[nH]c3ccccc23)C(=O)N[C@@H](CCCCN)C(=O)N[C@@H](Cc2cn(CC(=O)O)c3ccccc23)C(=O)N1C [Example 11213] ({CH2CO}-Y[NMeA]DPHK[Hyp]WK[Trp(1-CH2COOH)][NMeNle][NMeNle]LCGD-{NH(CH2)12COOH}; thioether N-14),10 to 99 nM
7,C#CC[C@H](NC(=O)CNC(=O)[C@@H]1CSCC(=O)N[C@@H](Cc2ccc(O)cc2)C(=O)N2CCCC[C@H]2C(=O)N[C@@H](CC(N)=O)C(=O)N2CCC[C@H]2C(=O)N[C@@H](CNC)C(=O)N[C@@H](CC(C)C)C(=O)N2C[C@H](O)C[C@H]2C(=O)N[C@@H](Cc2c[nH]c3ccccc23)C(=O)N[C@@H](CCN)C(=O)N[C@@H](Cc2cn(CC(=O)O)c3ccccc23)C(=O)N(C)[C@@H](CCCC)C(=O)N(C)[C@@H](CCCC)C(=O)N[C@@H](CCC(=O)O)C(=O)N1)C(=O)O [INT130AL] ({CH2CO}-Y[Pip]NP[Dap(Me)]L[Hyp]W[Dab][Trp(1-CH2COOH)][NMeNle][NMeNle]ECG[Pra]-OH; thioether N-14),0.3 to 9.9 nM
